Tests used:
[1] = system: Tyrosine-protein kinase ABL1 (Homo sapiens), P00519 [M351T]; conditions: Compound concentration 1000.0 nM
[2] = system: Tyrosine-protein kinase ABL1 (Homo sapiens), P00519 [Q252H]; conditions: Compound concentration 1000.0 nM
[3] = target: Cyclin-dependent kinase 3 (Homo sapiens) (UniProt Q00526); conditions: Compound concentration 1000.0 nM
[4] = target: Cyclin-dependent kinase-like 3 (Homo sapiens) (UniProt Q8IVW4); conditions: Compound concentration 1000.0 nM
[5] = target: Serine/threonine-protein kinase Chk1 (Homo sapiens) (UniProt O14757); conditions: Compound concentration 1000.0 nM
[6] = system: Epidermal growth factor receptor (Homo sapiens), P00533 [UNDEFINED MUTATION]; conditions: Compound concentration 1000.0 nM
[7] = target: Ephrin type-A receptor 4 (Homo sapiens) (UniProt P54764); conditions: Compound concentration 1000.0 nM
[8] = target: Ephrin type-A receptor 5 (Homo sapiens) (UniProt P54756); conditions: Compound concentration 1000.0 nM
[9] = target: Ephrin type-B receptor 3 (Homo sapiens) (UniProt P54753); conditions: Compound concentration 1000.0 nM
[10] = target: Mitogen-activated protein kinase 6 (Homo sapiens) (UniProt Q16659); conditions: Compound concentration 1000.0 nM
[11] = target: Focal adhesion kinase 1 (Homo sapiens) (UniProt Q05397); conditions: Compound concentration 1000.0 nM
[12] = system: Receptor-type tyrosine-protein kinase FLT3 (Homo sapiens), P36888 [D835Y]; conditions: Compound concentration 1000.0 nM
[13] = target: Vascular endothelial growth factor receptor 3 (Homo sapiens) (UniProt P35916); conditions: Compound concentration 1000.0 nM
[14] = target: Hormonally up-regulated neu tumor-associated kinase (Homo sapiens) (UniProt P57058); conditions: Compound concentration 1000.0 nM
[15] = target: LIM domain kinase 2 (Homo sapiens) (UniProt P53671); conditions: Compound concentration 1000.0 nM
[16] = target: Serine/threonine-protein kinase 10 (Homo sapiens) (UniProt O94804); conditions: Compound concentration 1000.0 nM
[17] = target: Mitogen-activated protein kinase kinase kinase kinase 4 (Homo sapiens) (UniProt O95819); conditions: Compound concentration 1000.0 nM
[18] = target: Muscle, skeletal receptor tyrosine-protein kinase (Homo sapiens) (UniProt O15146); conditions: Compound concentration 1000.0 nM
[19] = target: Serine/threonine-protein kinase Nek11 (Homo sapiens) (UniProt Q8NG66); conditions: Compound concentration 1000.0 nM
[20] = target: Serine/threonine-protein kinase OSR1 (Homo sapiens) (UniProt O95747); conditions: Compound concentration 1000.0 nM
[21] = target: Mitogen-activated protein kinase 13 (Homo sapiens) (UniProt O15264); conditions: Compound concentration 1000.0 nM
[22] = target: Cyclin-dependent kinase 18 (Homo sapiens) (UniProt Q07002); conditions: Compound concentration 1000.0 nM
[23] = target: Phosphatidylinositol 4,5-bisphosphate 3-kinase catalytic subunit delta isoform (Homo sapiens) (UniProt O00329); conditions: Compound concentration 1000.0 nM
[24] = target: 1-phosphatidylinositol 3-phosphate 5-kinase (Homo sapiens) (UniProt Q9Y2I7); conditions: Compound concentration 1000.0 nM
[25] = target: Serine/threonine-protein kinase pim-3 (Homo sapiens) (UniProt Q86V86); conditions: Compound concentration 1000.0 nM
[26] = target: Phosphatidylinositol 5-phosphate 4-kinase type-2 gamma (Homo sapiens) (UniProt Q8TBX8); conditions: Compound concentration 1000.0 nM
[27] = target: Membrane-associated tyrosine- and threonine-specific cdc2-inhibitory kinase (Homo sapiens) (UniProt Q99640); conditions: Compound concentration 1000.0 nM
[28] = target: Protein kinase C delta type (Homo sapiens) (UniProt Q05655); conditions: Compound concentration 1000.0 nM
[29] = target: cAMP-dependent protein kinase catalytic subunit PRKX (Homo sapiens) (UniProt P51817); conditions: Compound concentration 1000.0 nM
[30] = target: Ribosomal protein S6 kinase alpha-1 (Homo sapiens) (UniProt Q15418); conditions: Compound concentration 1000.0 nM
[31] = target: Ribosomal protein S6 kinase alpha-2 (Homo sapiens) (UniProt Q15349); conditions: Compound concentration 1000.0 nM
[32] = target: Ribosomal protein S6 kinase alpha-6 (Homo sapiens) (UniProt Q9UK32); conditions: Compound concentration 1000.0 nM
[33] = target: STE20/SPS1-related proline-alanine-rich protein kinase (Homo sapiens) (UniProt Q9UEW8); conditions: Compound concentration 1000.0 nM
[34] = target: Dual specificity protein kinase TTK (Homo sapiens) (UniProt P33981); conditions: Compound concentration 1000.0 nM
[35] = target: Non-receptor tyrosine-protein kinase TYK2 (Homo sapiens) (UniProt P29597); conditions: Compound concentration 1000.0 nM
[36] = target: Mitogen-activated protein kinase kinase kinase 19 (Homo sapiens) (UniProt Q56UN5); conditions: Compound concentration 1000.0 nM
[37] = target: T1, Alpha-1D adrenergic receptor (Homo sapiens) (UniProt P25100); conditions: Compound concentration 10.0 uM
T1 sequence (whole entry): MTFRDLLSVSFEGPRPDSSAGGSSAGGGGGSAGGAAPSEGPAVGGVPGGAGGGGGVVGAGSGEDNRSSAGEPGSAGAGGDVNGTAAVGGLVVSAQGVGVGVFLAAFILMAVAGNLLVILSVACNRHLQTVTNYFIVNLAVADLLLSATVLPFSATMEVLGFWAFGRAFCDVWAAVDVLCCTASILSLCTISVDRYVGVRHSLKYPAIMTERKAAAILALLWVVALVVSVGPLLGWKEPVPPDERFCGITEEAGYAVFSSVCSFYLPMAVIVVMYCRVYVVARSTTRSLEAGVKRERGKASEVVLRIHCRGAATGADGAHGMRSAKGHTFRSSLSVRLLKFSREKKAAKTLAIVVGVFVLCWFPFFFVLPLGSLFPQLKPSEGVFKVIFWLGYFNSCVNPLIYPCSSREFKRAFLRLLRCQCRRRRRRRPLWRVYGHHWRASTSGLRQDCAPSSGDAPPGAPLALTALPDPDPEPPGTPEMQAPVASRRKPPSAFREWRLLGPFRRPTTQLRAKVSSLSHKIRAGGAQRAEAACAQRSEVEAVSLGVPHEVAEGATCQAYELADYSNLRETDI

Sequence of Hormonally up-regulated neu tumor-associated kinase (Homo sapiens) (P57058 whole entry, the tested form may be a part): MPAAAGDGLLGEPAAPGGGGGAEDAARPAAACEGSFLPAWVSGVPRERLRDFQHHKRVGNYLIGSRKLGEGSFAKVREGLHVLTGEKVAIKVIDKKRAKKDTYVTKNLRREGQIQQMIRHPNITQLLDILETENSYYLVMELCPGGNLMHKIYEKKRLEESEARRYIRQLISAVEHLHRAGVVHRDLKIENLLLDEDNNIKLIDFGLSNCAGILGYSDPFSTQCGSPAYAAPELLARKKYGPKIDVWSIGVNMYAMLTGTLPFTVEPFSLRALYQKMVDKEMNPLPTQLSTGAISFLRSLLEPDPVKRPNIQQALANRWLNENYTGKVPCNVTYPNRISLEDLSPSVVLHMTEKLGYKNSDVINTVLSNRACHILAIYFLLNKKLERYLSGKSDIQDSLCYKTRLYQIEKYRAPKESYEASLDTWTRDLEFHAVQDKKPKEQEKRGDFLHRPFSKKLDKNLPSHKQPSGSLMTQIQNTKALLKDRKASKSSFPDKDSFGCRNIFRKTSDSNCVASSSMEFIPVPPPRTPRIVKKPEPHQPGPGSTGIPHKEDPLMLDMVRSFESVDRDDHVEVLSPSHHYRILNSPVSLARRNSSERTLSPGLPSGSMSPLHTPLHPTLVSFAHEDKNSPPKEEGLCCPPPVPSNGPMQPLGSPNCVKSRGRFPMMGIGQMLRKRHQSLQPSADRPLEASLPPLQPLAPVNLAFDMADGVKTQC
Sequence of Mitogen-activated protein kinase 13 (Homo sapiens) (O15264 whole entry): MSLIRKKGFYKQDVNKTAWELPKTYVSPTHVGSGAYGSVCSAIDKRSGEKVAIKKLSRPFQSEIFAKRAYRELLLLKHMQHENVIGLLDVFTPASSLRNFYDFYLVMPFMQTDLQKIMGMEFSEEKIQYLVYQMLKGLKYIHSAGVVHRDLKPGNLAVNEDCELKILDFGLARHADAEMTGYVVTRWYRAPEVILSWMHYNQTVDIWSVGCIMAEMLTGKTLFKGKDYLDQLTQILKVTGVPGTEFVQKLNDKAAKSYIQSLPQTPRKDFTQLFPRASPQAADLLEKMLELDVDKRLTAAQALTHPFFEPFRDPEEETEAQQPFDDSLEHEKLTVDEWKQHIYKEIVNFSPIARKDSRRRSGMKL
Sequence of cAMP-dependent protein kinase catalytic subunit PRKX (Homo sapiens) (P51817 whole entry): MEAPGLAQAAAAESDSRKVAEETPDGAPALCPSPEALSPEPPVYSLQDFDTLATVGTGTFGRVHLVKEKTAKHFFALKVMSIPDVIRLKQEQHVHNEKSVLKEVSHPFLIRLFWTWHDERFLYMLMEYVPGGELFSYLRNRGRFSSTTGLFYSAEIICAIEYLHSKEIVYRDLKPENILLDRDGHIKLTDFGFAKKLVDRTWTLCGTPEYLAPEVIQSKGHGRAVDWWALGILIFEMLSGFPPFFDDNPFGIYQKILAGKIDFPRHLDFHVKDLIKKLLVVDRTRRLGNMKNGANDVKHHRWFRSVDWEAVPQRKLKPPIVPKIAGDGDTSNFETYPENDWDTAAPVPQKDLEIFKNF
Sequence of Ephrin type-B receptor 3 (Homo sapiens) (P54753 whole entry): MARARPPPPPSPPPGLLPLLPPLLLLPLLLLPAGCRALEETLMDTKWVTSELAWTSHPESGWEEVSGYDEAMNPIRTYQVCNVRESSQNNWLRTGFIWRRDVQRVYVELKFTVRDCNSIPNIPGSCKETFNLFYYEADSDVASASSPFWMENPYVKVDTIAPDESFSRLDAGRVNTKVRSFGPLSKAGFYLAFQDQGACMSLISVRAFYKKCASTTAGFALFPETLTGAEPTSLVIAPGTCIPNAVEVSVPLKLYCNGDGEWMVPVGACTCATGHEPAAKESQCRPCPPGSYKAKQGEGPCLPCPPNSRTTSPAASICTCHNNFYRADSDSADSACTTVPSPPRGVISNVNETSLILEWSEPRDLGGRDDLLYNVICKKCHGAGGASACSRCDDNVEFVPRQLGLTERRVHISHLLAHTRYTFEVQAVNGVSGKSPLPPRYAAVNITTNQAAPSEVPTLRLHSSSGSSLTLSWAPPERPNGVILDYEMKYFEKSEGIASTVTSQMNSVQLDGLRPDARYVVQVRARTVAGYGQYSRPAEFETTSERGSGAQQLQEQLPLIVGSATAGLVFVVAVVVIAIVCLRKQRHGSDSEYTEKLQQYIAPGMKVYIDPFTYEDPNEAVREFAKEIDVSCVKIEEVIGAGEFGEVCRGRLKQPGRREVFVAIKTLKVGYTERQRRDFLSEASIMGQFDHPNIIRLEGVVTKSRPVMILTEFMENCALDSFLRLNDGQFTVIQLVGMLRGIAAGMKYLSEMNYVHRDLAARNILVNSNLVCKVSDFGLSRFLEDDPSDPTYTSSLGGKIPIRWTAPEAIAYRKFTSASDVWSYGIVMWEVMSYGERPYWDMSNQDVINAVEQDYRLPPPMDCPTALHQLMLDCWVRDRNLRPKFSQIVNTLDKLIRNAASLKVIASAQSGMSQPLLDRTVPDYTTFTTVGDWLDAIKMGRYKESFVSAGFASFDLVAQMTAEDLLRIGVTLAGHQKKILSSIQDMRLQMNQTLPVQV
Sequence of Membrane-associated tyrosine- and threonine-specific cdc2-inhibitory kinase (Homo sapiens) (Q99640 whole entry): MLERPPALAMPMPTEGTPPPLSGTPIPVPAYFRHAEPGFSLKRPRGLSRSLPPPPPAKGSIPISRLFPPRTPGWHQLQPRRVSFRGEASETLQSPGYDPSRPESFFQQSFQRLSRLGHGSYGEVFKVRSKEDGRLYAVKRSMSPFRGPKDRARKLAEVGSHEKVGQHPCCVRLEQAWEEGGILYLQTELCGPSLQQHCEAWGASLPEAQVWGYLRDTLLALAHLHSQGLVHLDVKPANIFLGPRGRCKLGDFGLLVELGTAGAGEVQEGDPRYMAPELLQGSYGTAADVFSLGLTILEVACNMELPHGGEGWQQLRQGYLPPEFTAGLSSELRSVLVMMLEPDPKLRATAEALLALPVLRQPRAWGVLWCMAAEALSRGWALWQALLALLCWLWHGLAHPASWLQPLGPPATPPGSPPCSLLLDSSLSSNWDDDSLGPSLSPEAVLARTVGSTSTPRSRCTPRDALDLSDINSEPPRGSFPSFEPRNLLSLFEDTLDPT
Sequence of Ephrin type-A receptor 4 (Homo sapiens) (P54764 whole entry): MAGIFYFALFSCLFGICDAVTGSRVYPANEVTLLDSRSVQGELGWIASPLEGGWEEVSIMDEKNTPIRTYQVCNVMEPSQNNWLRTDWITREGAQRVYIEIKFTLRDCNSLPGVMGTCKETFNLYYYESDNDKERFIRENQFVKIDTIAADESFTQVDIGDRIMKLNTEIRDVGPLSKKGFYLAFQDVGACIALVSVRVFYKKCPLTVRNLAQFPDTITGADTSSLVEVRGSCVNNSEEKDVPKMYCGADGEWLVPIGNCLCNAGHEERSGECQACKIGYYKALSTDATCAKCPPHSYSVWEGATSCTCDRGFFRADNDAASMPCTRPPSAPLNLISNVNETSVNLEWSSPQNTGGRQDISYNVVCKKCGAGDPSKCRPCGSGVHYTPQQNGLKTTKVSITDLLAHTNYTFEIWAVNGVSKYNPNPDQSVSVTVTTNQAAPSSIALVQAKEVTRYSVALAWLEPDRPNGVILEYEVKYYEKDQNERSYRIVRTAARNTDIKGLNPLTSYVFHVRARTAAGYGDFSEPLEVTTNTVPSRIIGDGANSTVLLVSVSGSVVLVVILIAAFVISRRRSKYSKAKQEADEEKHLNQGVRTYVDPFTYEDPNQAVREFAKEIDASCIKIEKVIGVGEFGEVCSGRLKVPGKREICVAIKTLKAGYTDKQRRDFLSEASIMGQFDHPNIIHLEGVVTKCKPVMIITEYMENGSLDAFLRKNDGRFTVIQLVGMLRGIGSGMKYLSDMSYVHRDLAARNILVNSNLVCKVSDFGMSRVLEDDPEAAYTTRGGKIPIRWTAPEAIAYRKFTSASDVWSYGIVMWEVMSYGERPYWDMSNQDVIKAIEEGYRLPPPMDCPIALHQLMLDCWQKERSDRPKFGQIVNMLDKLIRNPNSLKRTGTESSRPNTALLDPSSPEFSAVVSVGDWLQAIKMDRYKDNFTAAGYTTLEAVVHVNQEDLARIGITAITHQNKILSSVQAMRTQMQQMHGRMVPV
Sequence of Focal adhesion kinase 1 (Homo sapiens) (Q05397 2-1052 limits assumed): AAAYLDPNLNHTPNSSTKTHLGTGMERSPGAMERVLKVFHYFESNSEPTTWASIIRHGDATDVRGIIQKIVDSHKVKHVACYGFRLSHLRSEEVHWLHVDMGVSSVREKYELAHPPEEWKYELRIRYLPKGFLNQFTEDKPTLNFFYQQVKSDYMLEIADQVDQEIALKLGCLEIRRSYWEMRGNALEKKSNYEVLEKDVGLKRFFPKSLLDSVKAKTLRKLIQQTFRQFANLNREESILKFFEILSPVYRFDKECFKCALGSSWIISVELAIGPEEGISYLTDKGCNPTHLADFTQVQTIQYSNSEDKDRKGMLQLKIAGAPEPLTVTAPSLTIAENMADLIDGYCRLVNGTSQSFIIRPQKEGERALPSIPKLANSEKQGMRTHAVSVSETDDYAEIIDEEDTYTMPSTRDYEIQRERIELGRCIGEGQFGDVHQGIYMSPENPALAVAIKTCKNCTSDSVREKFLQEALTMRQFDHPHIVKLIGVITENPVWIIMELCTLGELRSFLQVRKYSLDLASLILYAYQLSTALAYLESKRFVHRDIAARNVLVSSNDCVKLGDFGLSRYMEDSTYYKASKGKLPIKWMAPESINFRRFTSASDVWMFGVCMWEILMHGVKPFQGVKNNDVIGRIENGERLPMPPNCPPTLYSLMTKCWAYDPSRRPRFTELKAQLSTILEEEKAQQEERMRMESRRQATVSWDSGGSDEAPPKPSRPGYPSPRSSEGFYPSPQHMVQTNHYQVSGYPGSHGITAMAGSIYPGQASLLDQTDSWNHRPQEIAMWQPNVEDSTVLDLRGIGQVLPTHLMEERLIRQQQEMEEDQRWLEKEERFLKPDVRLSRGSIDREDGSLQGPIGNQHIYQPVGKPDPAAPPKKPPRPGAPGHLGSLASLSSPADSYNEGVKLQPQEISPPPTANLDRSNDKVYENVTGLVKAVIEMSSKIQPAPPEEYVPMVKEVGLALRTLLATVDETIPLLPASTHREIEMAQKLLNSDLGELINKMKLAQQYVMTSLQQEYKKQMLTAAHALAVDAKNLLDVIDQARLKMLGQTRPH

Row | SMILES | residual activity [1] [%] | residual activity [2] [%] | residual activity [3] [%] | residual activity [4] [%] | residual activity [5] [%] | residual activity [6] [%] | residual activity [7] [%] | residual activity [8] [%] | residual activity [9] [%] | residual activity [10] [%] | residual activity [11] [%] | residual activity [12] [%] | residual activity [13] [%] | residual activity [14] [%] | residual activity [15] [%] | residual activity [16] [%] | residual activity [17] [%] | residual activity [18] [%] | residual activity [19] [%] | residual activity [20] [%] | also measured
1 | O=C(O)[C@H]1[C@H](Cn2nnc3ccccc3c2=O)CC[C@@H]1C(=O)c1ccc(OCCC2CCOCC2)cc1 [BAY-7598] | 82 | 83 | 100 | 87 | 100 | 40 | 90 | 100 | 89 | 90 | 89 | 96 | 81 | 71 | 90 | 100 | 91 | 95 | 100 | 77 | residual activity [21]: 97%; residual activity [22]: 84%; residual activity [23]: 89%; residual activity [24]: 72%; residual activity [25]: 86%; residual activity [26]: 100%; residual activity [27]: 96%; residual activity [28]: 100%; residual activity [29]: 93%; residual activity [30]: 95%; residual activity [31]: 90%; residual activity [32]: 97%; residual activity [33]: 95%; residual activity [34]: 83%; residual activity [35]: 100%; residual activity [36]: 78%; inhibition [37]: 0.59%
2 | O=C(O)[C@@H]1[C@@H](Cn2nnc3ccccc3c2=O)CC[C@H]1C(=O)c1ccc(OCCC2CCOCC2)cc1 [BAY-694] | 95 | 92 | 100 | 98 | 100 | 53 | 92 | 94 | 100 | 100 | 100 | 100 | 100 | 100 | 100 | 84 | 93 | 100 | 100 | 100 | residual activity [21]: 94%; residual activity [22]: 90%; residual activity [23]: 99%; residual activity [24]: 87%; residual activity [25]: 84%; residual activity [26]: 89%; residual activity [27]: 82%; residual activity [28]: 100%; residual activity [29]: 100%; residual activity [30]: 92%; residual activity [31]: 96%; residual activity [32]: 100%; residual activity [33]: 96%; residual activity [34]: 89%; residual activity [35]: 100%; residual activity [36]: 84%; inhibition [37]: 0.08%

— ChEMBL document CHEMBL4507264, “Data for DCP probe BAY-7598” (2021)
